# In patent publication US7405200B2, “Use of oxytocin for the preparation of a pharmaceutical composition against cancer in situ and cervicitis” (priority 2001, dated 2008):
# Tested on: cancer in situ and cervicitis
# Assay: Effect of Oxytocin on Cancer in Situ and Cervicitis in Humans (Pap smear test)
# Type: in vivo
# Conditions: one patient with cancer in situ and cervicitis; oxytocin 1 mg/ml mixed with 1 ml cellulose gel intravaginally during five consecutive days
# Description: Patients. 20 women, all aged 60–70 years, with postmenopausal disorders, participated in a double blind cross-over randomised protocol, which means that the patients receive both oxytocin and control treatment without knowing the order of the treatments.
# Experimental procedure. The patients were treated with oxytocin 1 mg/ml mixed with 1 ml cellulose gel intravaginally during five consecutive days to relieve the postmenopausal disorders. However, it was discovered that one of the patients suffered from cancer in situ and cervicitis before the oxytocin treatment. This was established by the fact that the patient underwent a Pap smear test before the oxytocin treatment. In this test, cells desquamated from the genital epithelium are obtained by smears, fixed and stained, and examined under the microscope for evidence of pathologic changes. After the oxytocin treatment, the patient also underwent a Pap smear test.
substance,measurement,value
oxytocin,results of the Pap smear tests before and after oxytocin administration,the cancer in situ and cervicitis was removed
